The record followed here is US20260306496A1, “CDK2 INHIBITOR PYRAZOLOPYRIMIDINE COMPOUNDS” (ALEKSIA THERAPEUTICS, INC., priority 2023, published 2026).

The structures appear in SMILES notation. pIC50: −log10 of the molar value. Where a name gives a salt, the structure may show the parent alone.

The first assay deals with CDK2/CCNE1 (Homo sapiens, UniProt P24941). Nature of the assay: CDK2 homogeneous time-resolved fluorescence (HTRF) assay. The class given is biochemical. The note with it: 3 nM CDK2/CCNE1, 1 mM ATP, 50 nM ULight-eIF4E-binding protein 1 (Thr37/46) peptide, 60 min at 23° C.; read-out: CDK2/CCNE IC50 <25 nM. As for the experimental part:
A CDK homogeneous time-resolved fluorescence (HTRF) assay was used to assess the potency of the compounds described herein.
To an untreated 384-well microtiter plate (ProxiPlate) was added 100 nL 100× test compound in DMSO and 5 μL 2×CDK enzyme in assay buffer (50 mM HEPES, 1 mM EGTA, 10 mM MgCl2, 0.01% Tween 20, 2 mM DTT). The plate was centrifuged at 800 RPM for 1 min then incubated for 20 min at 23° C. 2.5 μL per well of 4×ATP and 2.5 μL 4×ULight™-eIF4E-binding protein 1 (Thr37/46) Peptide) substrate were added to all wells. After addition, the plates were centrifuged at 800 RPM for 1 min. The plates were incubated at 23° C. for 60 min. 5 μL per well 3×EDTA solution were added to each well to stop the reaction. 2.5 μL 7×LANCE Ultra Europium-anti-phospho-eTF4E-binding protein 1 (Thr37/46 antibody) were added to each well and the plate was centrifuged for 1 min at 800 RPM. The plate was incubated for 60 min at 23° C. Fluorescence was read at 340 nm excitation and 665 nm emission on an EnVision 2105 fluorescence reader. The final concentrations of reagents in the activity assay were 3 nM CDK2/CCNE1, 1 mM ATP, 50 nM ULight™-eIF4E-binding protein 1 (Thr37/46) Peptide substrate, 1% DMSO, 10 mM EDTA, and 2 nM LANCE Ultra Europium-anti-phospho-eTF4E-binding protein 1 (Thr37/46).
Dose-response titrations were conducted by using an 11-point, three-fold serial dilution scheme typically starting at 1 μM. Signals were reported as fluorescence units at 665 nm or the ratio of fluorescence units at 665 nm/fluorescence units at 615 nm. Signals are referred to below as “Lance signals”.
Using this assay, the IC50 values of example compounds were determined.
Regarding `CS(=O)(=O)N1CCC(Nc2ncc3cnn(CC4CCCCC4)c3n2)CC1` [Compound 2, 1-(cyclohexylmethyl)-N-(1-(methylsulfonyl)piperidin-4-yl)-1H-pyrazolo[3,4-d]pyrimidin-6-amine], the pIC50 is above 7.60.

The assay is the same for the next values; noted with them: 3 nM CDK2/CCNE1, 1 mM ATP, 50 nM ULight-eIF4E-binding protein 1 (Thr37/46) peptide, 60 min at 23° C.; read-out: CDK2/CCNE IC50 >150 nM.
`CS(=O)(=O)c1ccc(Nc2ncc3cnn(CC4CCC(N5CCC5)CC4)c3n2)cc1` (single isomer, unassigned; stereoisomer a) [Compound 60, 1-((4-(azetidin-1-yl)cyclohexyl)methyl)-N-(4-(methylsulfonyl)phenyl)-1H-pyrazolo[3,4-d]pyrimidin-6-amine (stereoisomer A)]: the pIC50 is below 6.82.

Regarding `CC#CS(=O)(=O)c1ccc(Nc2ncc3cnn(CC4CCCCC4)c3n2)cc1` [Compound 43, 1-(cyclohexylmethyl)-N-(4-(prop-1-yn-1-ylsulfonyl)phenyl)-1H-pyrazolo[3,4-d]pyrimidin-6-amine], the pIC50 is below 6.82. The same measure, in the same setting: to `CN(CCO)[C@H]1CC[C@H](Cn2ncc3cnc(Nc4ccc(S(C)(=O)=O)cc4)nc32)CC1` [Compound 84, 2-(methyl((1r,4r)-4-((6-((4-(methylsulfonyl)phenyl)amino)-1H-pyrazolo[3,4-d]pyrimidin-1-yl)methyl)cyclohexyl)amino)ethan-1-ol] belongs below 6.82; to `CS(=O)(=O)c1ccc(Nc2ncc3cnn([C@@H]4CC[C@@H](C#N)C4)c3n2)cc1` [Compound 47, (1R,3R)-3-(6-((4-(methylsulfonyl)phenyl)amino)-1H-pyrazolo[3,4-d]pyrimidin-1-yl)cyclopentane-1-carbonitrile], below 6.82. As to `CS(=O)(=O)c1ccc(Nc2ncc3cnn(CCc4ccccc4)c3n2)cc1` [Compound 62, N-(4-(methylsulfonyl)phenyl)-1-phenethyl-1H-pyrazolo[3,4-d]pyrimidin-6-amine], the pIC50 was below 6.82. As to `CS(=O)(=O)c1ccc(Nc2ncc3cnn(CC4CCC(N5CC(C#N)C5)CC4)c3n2)cc1` (single isomer, unassigned; stereoisomer a) [Compound 65, 1-(4-((6-((4-(methylsulfonyl)phenyl)amino)-1H-pyrazolo[3,4-d]pyrimidin-1-yl)methyl)cyclohexyl)azetidine-3-carbonitrile (stereoisomer A)], the pIC50 was below 6.82.

`C=CS(=O)(=O)c1ccc(Nc2ncc3cn[nH]c3n2)cc1` [Compound 9, N-(4-(vinylsulfonyl)phenyl)-1H-pyrazolo[3,4-d]pyrimidin-6-amine]: the pIC50 was below 6.82.

As to `CS(=O)(=O)c1ccc(Nc2ncc3cnn(C[C@H]4CC[C@@H](C(=O)Oc5ccc(F)cc5)CC4)c3n2)cc1` [Compound 18, 4-Fluorophenyl (1s,4s)-4-((6-((4-(methylsulfonyl)phenyl)amino)-1H-pyrazolo[3,4-d]pyrimidin-1-yl)methyl)cyclohexane-1-carboxylate], the pIC50 was below 6.82. With `Cn1cc2cc(-n3ncc4cnc(Nc5ccc(S(C)(=O)=O)cc5)nc43)ccc2n1` [Compound 82, 1-(2-methyl-2H-indazol-5-yl)-N-(4-(methylsulfonyl)phenyl)-1H-pyrazolo[3,4-d]pyrimidin-6-amine], the pIC50 was below 6.82.

Consider `CS(=O)(=O)c1ccc(Nc2ncc3cnn(Cc4cccnc4)c3n2)cc1` [Compound 5, N-(4-(methylsulfonyl)phenyl)-1-(pyridine-3-ylmethyl)-1H-pyrazolo[3,4-d]pyrimidin-6-amine], for which the pIC50 is below 6.82. For `CS(=O)(=O)c1ccc(Nc2ncc3cnn(CC4CCC(N5CC[C@H](O)C5)CC4)c3n2)cc1` (single isomer, unassigned; stereoisomer a) [Compound 74], the pIC50 was below 6.82.

For the compound `C=CC(=O)c1ccc(Nc2ncc3cnn(CC4CCCCC4)c3n2)cc1` [Compound 44, 1-(4-((1-(cyclohexylmethyl)-1H-pyrazolo[3,4-d]pyrimidin-6-yl)amino)phenyl)prop-2-en-1-one], the pIC50 is below 6.82. On to `CS(=O)(=O)c1ccc(Nc2ncc3cnn(CC4CCC(N5CC[C@@H](C#N)C5)CC4)c3n2)cc1` (single isomer, unassigned; stereoisomer a) [Compound 71], for which the pIC50 was below 6.82. With `CS(=O)(=O)c1ccc(Nc2ncc3cnn(CC4CCC(N5CC[C@H](C#N)C5)CC4)c3n2)cc1` (single isomer, unassigned; stereoisomer a) [Compound 69], the pIC50 is below 6.82. For the compound `CS(=O)(=O)c1ccc(Nc2ncc3cnn(CC4CCOCC4)c3n2)cc1` [Compound 63, N-(4-(methylsulfonyl)phenyl)-1-((tetrahydro-2H-pyran-4-yl)methyl)-1H-pyrazolo[3,4-d]pyrimidin-6-amine], the pIC50 was below 6.82.

Still in this assay, the particulars now being: column 25-150 nM; 3 nM CDK2/CCNE1, 1 mM ATP, 50 nM ULight-eIF4E-binding protein 1 (Thr37/46) peptide, 60 min at 23° C.; read-out: CDK2/CCNE IC50 25-150 nM.
For the compound `CS(=O)(=O)c1ccc(Nc2ncc3cnn(-c4ccc(C#N)cc4)c3n2)cc1` (single isomer, unassigned) [Compound 68, 4-(6-((4-(methylsulfonyl)phenyl)amino)-1H-pyrazolo[3,4-d]pyrimidin-1-yl)benzonitrile], the pIC50 was 6.82 to 7.60. Same read-out and setting: as for `CS(=O)(=O)c1ccc(Nc2ncc3cnn(-c4ccc5cn[nH]c5c4)c3n2)cc1` [Compound 76, 1-(1H-indazol-6-yl)-N-(4-(methylsulfonyl)phenyl)-1H-pyrazolo[3,4-d]pyrimidin-6-amine], the figure is 6.82 to 7.60.

`CS(=O)(=O)c1ccc(Nc2ncc3cnn([C@H]4CC[C@H](O)CC4)c3n2)cc1` (single isomer, unassigned) [Compound 54]: the pIC50 is 6.82 to 7.60.

In the case of `CS(=O)(=O)c1ccc(Nc2ncc3cnn(C4CCC(=O)CC4)c3n2)cc1` [Compound 53, 4-(6-((4-(methylsulfonyl)phenyl)amino)-1H-pyrazolo[3,4-d]pyrimidin-1-yl)cyclohexan-1-one], the pIC50 was 6.82 to 7.60.

Regarding `CN(C)[C@H]1CC[C@@H](Cn2ncc3cnc(NC4CCN(S(C)(=O)=O)CC4)nc32)CC1` [Compound 56, 1-(((1S,4S)-4-(dimethylamino)cyclohexyl)methyl)-N-(1-(methylsulfonyl)piperidin-4-yl)-1H-pyrazolo[3,4-d]pyrimidin-6-amine], the pIC50 was 6.82 to 7.60. The same measure, in the same setting: as for `CS(=O)(=O)c1ccc(Nc2ncc3cnn(CC4CCCC4)c3n2)cc1` [Compound 13, 1-(cyclopentylmethyl)-N-(4-(methylsulfonyl)phenyl)-1H-pyrazolo[3,4-d]pyrimidin-6-amine], the figure is 6.82 to 7.60; as for `C=C(C)S(=O)(=O)c1ccc(Nc2ncc3cnn(CC4CCCCC4)c3n2)cc1` [Compound 30, 1-(cyclohexylmethyl)-N-(4-(prop-1-en-2-ylsulfonyl)phenyl)-1H-pyrazolo[3,4-d]pyrimidin-6-amine], 6.82 to 7.60; as for `C=CS(=O)(=O)c1ccc(Nc2ncc3cnn(CC4CCCCC4)c3n2)cc1C` [Compound 23, 1-(cyclohexylmethyl)-N-(3-methyl-4-(vinylsulfonyl)phenyl)-1H-pyrazolo[3,4-d]pyrimidin-6-amine], 6.82 to 7.60. On the same count and under the same terms, as for `C=CS(=O)(=O)c1ccc(Nc2ncc3cnn(CC4CCCCC4)c3n2)cc1` [Compound 8, 1-(cyclohexylmethyl)-N-(4-(vinylsulfonyl)phenyl)-1H-pyrazolo[3,4-d]pyrimidin-6-amine], the figure is 6.82 to 7.60; as for `Cn1ncc2cc(-n3ncc4cnc(Nc5ccc(S(C)(=O)=O)cc5)nc43)ccc21` [Compound 81, 1-(1-methyl-1H-indazol-5-yl)-N-(4-(methylsulfonyl)phenyl)-1H-pyrazolo[3,4-d]pyrimidin-6-amine], 6.82 to 7.60. Consider `CS(=O)(=O)c1ccc(Nc2ncc3cnn(C4CCOCC4)c3n2)cc1` [Compound 3, N-(4-(methylsulfonyl)phenyl)-1-(tetrahydro-2H-pyran-4-yl)-1H-pyrazolo[3,4-d]pyrimidin-6-amine], for which the pIC50 was 6.82 to 7.60. In the case of `CS(=O)(=O)c1ccc(Nc2ncc3cnn(C[C@H]4CC[C@@H](CO)CC4)c3n2)cc1` [Compound 17], the pIC50 is 6.82 to 7.60. Still for that read-out and setting: as for `CN(C)[C@H]1CC[C@@H](Cn2ncc3cnc(Nc4ccc(S(C)(=O)=O)cc4)nc32)CC1` [Compound 40, 1-(((1s,4s)-4-(dimethylamino)cyclohexyl)methyl)-N-(4-(methylsulfonyl)phenyl)-1H-pyrazolo[3,4-d]pyrimidin-6-amine formate], the figure is 6.82 to 7.60; as for `CS(=O)(=O)c1ccc(Nc2ncc3cnn(C[C@H]4CC[C@@H](N)CC4)c3n2)cc1` [Compound 6, 1-(((1S,4S)-4-aminocyclohexyl)methyl)-N-(4-(methylsulfonyl)phenyl)-1H-pyrazolo[3,4-d]pyrimidin-6-amine], 6.82 to 7.60.
